# Tested on: pressor response to exogenous angiotensin II
# Assay: Inhibition of pressor response to angiotensin II in conscious rats
# Assay type: in vivo
# Conditions: Rattus norvegicus, iv, change in mean arterial pressure, read-out: IC50, dose of compound needed to produce 50% inhibition of the control response to angiotensin II
# Description: Angiotensin II antagonist activity of the compounds of Formula (I) is assessed by in and in vivo methods. In vitro antagonist activity is determined by the ability of the compounds to compete with ^125 I-angiotensin II for binding to vascular angiotensin II receptors and by their ability to antagonize the contractile response to angiotensin II in the isolated rabbit aorta. In vivo activity is evaluated by the efficacy of the compounds to inhibit the pressor response to exogenous angiotensin II in conscious rats and to lower blood pressure in a rat model of renin dependent hypertension.
# Rats are prepared with indwelling femoral arterial and venous catheters and a stomach tube (Gellai et al., Kidney Int. 15:419, 1979). Two to three days following surgery the rats are placed in a restrainer and blood pressure is continuously monitored from the arterial catheter with a pressure transducer and recorded on a polygraph. The change in mean arterial pressure in response to intravenous injections of […] angiotensin II is compared at various time points prior to and following the administration of the compounds intravenously or orally at doses of 3 to 300 mg/kg. The dose of compound needed to produce 50% inhibition of the control response to angiotensin II (IC50) is used to estimate the potency of the compounds. […]
smiles,measurement,value
"CCCCc1ncc(C[C@H](NC(=O)CCC)C(=O)O)n1Cc1ccccc1Cl [Example 8, 3-[(2-Chlorophenyl)methyl]-2-n-butyl-N-butyrylhistidine]",ED50,10 mg/kg
